From PubChem BioAssay (NCI)
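48-hour exposure; five concentrations; linearly interpolated endpoints. Here, GI50 denotes the concentration required for 50% inhibition of growth. TGI: concentration producing complete growth inhibition.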

Legend:
Assay in all cases: inhibition of tumour cell growth, NCI panel, 48 h
SN12C renal = tested on: SN12C renal
NCI-H522 lung = tested on: NCI-H522 lung
ACHN renal = tested on: ACHN renal
SF-295 CNS = tested on: SF-295 CNS
MALME-3M melanoma = tested on: MALME-3M melanoma
HCT-15 colon = tested on: HCT-15 colon
PC-3 prostate = tested on: PC-3 prostate
NCI-H226 lung = tested on: NCI-H226 lung
OVCAR-5 ovarian = tested on: OVCAR-5 ovarian
HT29 colon = tested on: HT29 colon
HOP-92 NSCLC = tested on: HOP-92 NSCLC
COLO 205 colon = tested on: COLO 205 colon
M14 melanoma = tested on: M14 melanoma
UO-31 renal = tested on: UO-31 renal
OVCAR-8 ovarian = tested on: OVCAR-8 ovarian
OVCAR-4 ovarian = tested on: OVCAR-4 ovarian
NCI-H23 lung = tested on: NCI-H23 lung
U251 CNS = tested on: U251 CNS
SNB-75 CNS = tested on: SNB-75 CNS
SNB-19 CNS = tested on: SNB-19 CNS
IGROV1 ovarian = tested on: IGROV1 ovarian
A498 renal = tested on: A498 renal
A549 NSCLC = tested on: A549 NSCLC
SK-MEL-2 melanoma = tested on: SK-MEL-2 melanoma
UACC-257 melanoma = tested on: UACC-257 melanoma
RXF 393 renal = tested on: RXF 393 renal
NCI-H460 lung = tested on: NCI-H460 lung
SW-620 colon = tested on: SW-620 colon
HS 578T breast = tested on: HS 578T breast
HL-60(TB) leukemia = tested on: HL-60(TB) leukemia
MOLT-4 leukemia = tested on: MOLT-4 leukemia
SK-OV-3 ovarian = tested on: SK-OV-3 ovarian
SK-MEL-28 melanoma = tested on: SK-MEL-28 melanoma
MDA-MB-231 breast = tested on: MDA-MB-231 breast
SR leukemia = tested on: SR leukemia
BT-549 breast = tested on: BT-549 breast
SF-268 CNS = tested on: SF-268 CNS
CAKI-1 renal = tested on: CAKI-1 renal
UACC-62 melanoma = tested on: UACC-62 melanoma
T-47D breast = tested on: T-47D breast
LOX IMVI melanoma = tested on: LOX IMVI melanoma
MDA-MB-435 = tested on: MDA-MB-435
HOP-62 NSCLC = tested on: HOP-62 NSCLC
SF-539 CNS = tested on: SF-539 CNS
NCI/ADR-RES ovarian = tested on: NCI/ADR-RES ovarian
SK-MEL-5 melanoma = tested on: SK-MEL-5 melanoma
DU-145 prostate = tested on: DU-145 prostate
MCF7 breast = tested on: MCF7 breast
HCC-2998 colon = tested on: HCC-2998 colon
KM12 colon = tested on: KM12 colon
786-0 renal = tested on: 786-0 renal
RPMI-8226 leukemia = tested on: RPMI-8226 leukemia
OVCAR-3 ovarian = tested on: OVCAR-3 ovarian
CCRF-CEM leukemia = tested on: CCRF-CEM leukemia
K-562 leukemia = tested on: K-562 leukemia
HCT-116 colon = tested on: HCT-116 colon

O=C1/C(=C/c2ccc(Cl)cc2Cl)CN(S(=O)(=O)c2ccccc2)C/C1=C\c1ccc(Cl)cc1Cl
GI50 (SN12C renal): 288 nM
TGI (SN12C renal): 1100 nM
GI50 (NCI-H522 lung): 1130 nM
TGI (NCI-H522 lung): 3930 nM
GI50 (ACHN renal): 717 nM
TGI (ACHN renal): 6880 nM
GI50 (SF-295 CNS): 279 nM
TGI (SF-295 CNS): 1990 nM
GI50 (MALME-3M melanoma): 7200 nM
TGI (MALME-3M melanoma): > 100000 nM
GI50 (HCT-15 colon): 226 nM
TGI (HCT-15 colon): 614 nM
GI50 (PC-3 prostate): 299 nM
TGI (PC-3 prostate): 979 nM
GI50 (NCI-H226 lung): 513 nM
TGI (NCI-H226 lung): 1350 nM
GI50 (OVCAR-5 ovarian): 1020 nM
TGI (OVCAR-5 ovarian): 4650 nM
GI50 (HT29 colon): 301 nM
TGI (HT29 colon): 907 nM
GI50 (HOP-92 NSCLC): 1700 nM
TGI (HOP-92 NSCLC): 5550 nM
GI50 (COLO 205 colon): 339 nM
TGI (COLO 205 colon): 1210 nM
GI50 (M14 melanoma): 2770 nM
TGI (M14 melanoma): > 100000 nM
GI50 (UO-31 renal): 233 nM
TGI (UO-31 renal): 675 nM
GI50 (OVCAR-8 ovarian): 313 nM
GI50 (OVCAR-4 ovarian): 291 nM
TGI (OVCAR-4 ovarian): > 96000 nM
GI50 (NCI-H23 lung): 381 nM
TGI (NCI-H23 lung): 2400 nM
GI50 (U251 CNS): 173 nM
TGI (U251 CNS): 351 nM
GI50 (SNB-75 CNS): 473 nM
TGI (SNB-75 CNS): 8200 nM
GI50 (SNB-19 CNS): 496 nM
TGI (SNB-19 CNS): 10800 nM
GI50 (IGROV1 ovarian): 344 nM
TGI (IGROV1 ovarian): 1290 nM
GI50 (A498 renal): 1500 nM
TGI (A498 renal): 8760 nM
GI50 (A549 NSCLC): 316 nM
TGI (A549 NSCLC): 1510 nM
GI50 (SK-MEL-2 melanoma): 15400 nM
TGI (SK-MEL-2 melanoma): > 100000 nM
GI50 (UACC-257 melanoma): 17700 nM
TGI (UACC-257 melanoma): > 100000 nM
GI50 (RXF 393 renal): 1050 nM
TGI (RXF 393 renal): 2680 nM
GI50 (NCI-H460 lung): 224 nM
TGI (NCI-H460 lung): 498 nM
GI50 (SW-620 colon): 314 nM
TGI (SW-620 colon): 2540 nM
GI50 (HS 578T breast): 322 nM
TGI (HS 578T breast): 3870 nM
GI50 (HL-60(TB) leukemia): 731 nM
TGI (HL-60(TB) leukemia): > 19900 nM
GI50 (MOLT-4 leukemia): 460 nM
TGI (MOLT-4 leukemia): 12000 nM
GI50 (SK-OV-3 ovarian): 7320 nM
TGI (SK-OV-3 ovarian): 98900 nM
GI50 (SK-MEL-28 melanoma): 8290 nM
TGI (SK-MEL-28 melanoma): > 100000 nM
GI50 (MDA-MB-231 breast): 469 nM
TGI (MDA-MB-231 breast): 2670 nM
GI50 (SR leukemia): 198 nM
TGI (SR leukemia): 925 nM
GI50 (BT-549 breast): 617 nM
TGI (BT-549 breast): 2640 nM
GI50 (SF-268 CNS): 385 nM
TGI (SF-268 CNS): > 35700 nM
GI50 (CAKI-1 renal): 817 nM
TGI (CAKI-1 renal): 4220 nM
GI50 (UACC-62 melanoma): 1180 nM
TGI (UACC-62 melanoma): 4410 nM
GI50 (T-47D breast): 594 nM
GI50 (LOX IMVI melanoma): 193 nM
TGI (LOX IMVI melanoma): 395 nM
GI50 (MDA-MB-435): 701 nM
TGI (MDA-MB-435): 2890 nM
GI50 (HOP-62 NSCLC): 343 nM
GI50 (SF-539 CNS): 315 nM
TGI (SF-539 CNS): 1130 nM
GI50 (NCI/ADR-RES ovarian): 1150 nM
TGI (NCI/ADR-RES ovarian): > 100000 nM
GI50 (SK-MEL-5 melanoma): 14500 nM
TGI (SK-MEL-5 melanoma): > 100000 nM
GI50 (DU-145 prostate): 466 nM
TGI (DU-145 prostate): 19700 nM
GI50 (MCF7 breast): 292 nM
TGI (MCF7 breast): > 100000 nM
GI50 (HCC-2998 colon): 379 nM
TGI (HCC-2998 colon): 1310 nM
GI50 (KM12 colon): 276 nM
TGI (KM12 colon): 728 nM
GI50 (786-0 renal): 230 nM
TGI (786-0 renal): 509 nM
GI50 (RPMI-8226 leukemia): 196 nM
TGI (RPMI-8226 leukemia): 562 nM
GI50 (OVCAR-3 ovarian): 259 nM
TGI (OVCAR-3 ovarian): 620 nM
GI50 (CCRF-CEM leukemia): 291 nM
TGI (CCRF-CEM leukemia): 1300 nM
GI50 (K-562 leukemia): 326 nM
TGI (K-562 leukemia): > 38300 nM
GI50 (HCT-116 colon): 198 nM
TGI (HCT-116 colon): 421 nM
